Test [1] concerns the target T1, Full length human recombinant HDAC8 protein (Homo sapiens, UniProt Q9BY41).
T1 construct: Full length human recombinant HDAC8 protein was expressed in baculoviral system; made in house
T1 sequence (Q9BY41 1-377): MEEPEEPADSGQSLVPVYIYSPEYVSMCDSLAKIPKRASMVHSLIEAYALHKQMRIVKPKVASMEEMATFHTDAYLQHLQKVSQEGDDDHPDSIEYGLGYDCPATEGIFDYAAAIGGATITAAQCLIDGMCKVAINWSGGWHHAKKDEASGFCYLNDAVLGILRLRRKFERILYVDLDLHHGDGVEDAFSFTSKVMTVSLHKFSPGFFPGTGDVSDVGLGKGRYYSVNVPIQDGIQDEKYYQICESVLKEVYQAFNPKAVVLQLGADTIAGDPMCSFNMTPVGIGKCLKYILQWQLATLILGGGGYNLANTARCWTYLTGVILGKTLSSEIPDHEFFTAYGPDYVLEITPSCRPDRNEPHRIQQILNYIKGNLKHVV
Description: In vitro histone deacetylase assay: enzymatic HDAC8 electrophoretic mobility shift assay. The following applies: electrophoretic mobility shift assay; enzyme 1 nM; 2 μM fluorescently labeled peptide substrate RHKK(Ac)-NH2; 25° C.; 12 concentrations; read-out: HDAC8 IC50. It counts as biochemical.

Test [2] has as its target T2, Recombinant N-terminal GST tag full-length human HDAC8 (Homo sapiens, UniProt Q9BY41).
T2 construct: Recombinant N-terminal GST tag full-length human HDAC8; purchased SignalChem H90-30G-1000; host or cells: baculovirus in Sf9 insect cells
T2 sequence (Q9BY41 1-377): T1 sequence (Q9BY41 1-377)
In words: HDAC8 probe binding assay, time resolved fluorescence (TRF) format. The following applies: compounds grouped by IC50 range (Table 2). Summed up:
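IC50 values come from four-parameter logistic fits of percent inhibition, scaled between DMSO (high) and no-enzyme (low) controls. Time-resolved fluorescence (ex 340, em 485/535 nm) was read after 16 h at room temperature. Enzyme was Sf9-expressed full-length human HDAC8 with an N-terminal GST tag, in a probe-binding format.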

A value given as a limit tells only on which side of the number the result lay.

As for `O=C(NO)c1ccc2c(c1)N(Cc1ccccc1Cl)C(=O)CO2` [Compound I-147, 4-(2-chlorobenzyl)-N-hydroxy-3-oxo-3,4-dihydro-2H-benzo[b][1,4]oxazine-6-carboxamide], the IC50 in test [1] was less than 25 nM; in test [2] it was 25 to 100 nM.
As to `O=C(NO)c1ccc2c(c1)N(CC1CCCCC1)C(=O)CO2` [Compound I-149, 4-(cyclohexylmethyl)-N-hydroxy-3-oxo-3,4-dihydro-2H-benzo[b][1,4]oxazine-6-carboxamide], the IC50 in test [1] and in test [2] was 25 to 100 nM each time.
For the molecule `COc1ccc(CN2C(=O)C(C)Oc3ccc(C(=O)NO)cc32)cc1` (stereo not shown) [Compound I-151, N-hydroxy-4-(4-methoxybenzyl)-2-methyl-3-oxo-3,4-dihydro-2H-benzo[b][1,4]oxazine-6-carboxamide], the IC50 in test [1] is less than 25 nM; in test [2], no more than 25 nM.
Take `CC1Oc2ccc(C(=O)NO)cc2N(Cc2ccc(S(C)(=O)=O)cc2)C1=O` (stereo not shown) [Compound I-152, N-hydroxy-2-methyl-4-(4-(methylsulfonyl)benzyl)-3-oxo-3,4-dihydro-2H-benzo[b][1,4]oxazine-6-carboxamide]: the IC50 in test [1] is less than 25 nM; in test [2], no more than 25 nM.
For the molecule `CC1COc2ccc(C(=O)NO)cc2N1Cc1ccccc1` (stereo not shown) [Compound I-154, 4-benzyl-N-hydroxy-3-methyl-3,4-dihydro-2H-benzo[b][1,4]oxazine-6-carboxamide], the IC50 in test [1] and in test [2] was 25 to 100 nM in each case.
Turning to `COc1ccc(CN2C(=O)C3(CCC3)Oc3ccc(C(=O)NO)cc32)cc1` [Compound I-157, N-hydroxy-4-(4-methoxybenzyl)-3-oxo-3,4-dihydrospiro[benzo[b][1,4]oxazine-2,1′-cyclobutane]-6-carboxamide], the IC50 in test [1] and in test [2] was 25 to 100 nM throughout.
`COc1ccc(CN2C(=O)C(C)(C)Oc3ccc(C(=O)NO)cc32)c(F)c1` [Compound I-160, 4-(2-fluoro-4-methoxybenzyl)-N-hydroxy-2,2-dimethyl-3-oxo-3,4-dihydro-2H-benzo[b][1,4]oxazine-6-carboxamide]: the IC50 was less than 25 nM in test [1] and no more than 25 nM in test [2].
With `CC1(C)Oc2ccc(C(=O)NO)cc2N(Cc2ccc(Cl)cc2F)C1=O` [Compound I-161, 4-(4-chloro-2-fluorobenzyl)-N-hydroxy-2,2-dimethyl-3-oxo-3,4-dihydro-2H-benzo[b][1,4]oxazine-6-carboxamide], the IC50 in test [1] is less than 25 nM; in test [2], no more than 25 nM.
Consider `Cc1ccc2nc(CN3C(=O)COc4ccc(C(=O)NO)cc43)oc2c1` [Compound I-213, N-hydroxy-4-((6-methylbenzo[d]oxazol-2-yl)methyl)-3-oxo-3,4-dihydro-2H-benzo[b][1,4]oxazine-6-carboxamide], for which the figures for the IC50 in test [1] and in test [2] were less than 25 nM and no more than 25 nM, respectively.
Consider `O=C(NO)c1ccc2c(c1)N(Cc1cn3ccccc3n1)C(=O)CO2` [Compound I-216, N-hydroxy-4-(imidazo[1,2-a]pyridin-2-ylmethyl)-3-oxo-3,4-dihydro-2H-benzo[b][1,4]oxazine-6-carboxamide], for which the IC50 in test [1] and in test [2] was 25 to 100 nM throughout.
`O=C(NO)c1ccc2c(c1)N(Cc1nc3cc(F)ccc3o1)C(=O)CO2` [Compound I-217, 4-((5-fluorobenzo[d]oxazol-2-yl)methyl)-N-hydroxy-3-oxo-3,4-dihydro-2H-benzo[b][1,4]oxazine-6-carboxamide]: the IC50 in test [1] was less than 25 nM; in test [2] it was no more than 25 nM.
Regarding `O=C(NO)c1ccc2c(c1)N(Cc1nc3ccc(F)cc3o1)C(=O)CO2` [Compound I-218, 4-((6-fluorobenzo[d]oxazol-2-yl)methyl)-N-hydroxy-3-oxo-3,4-dihydro-2H-benzo[b][1,4]oxazine-6-carboxamide], the values for the IC50 in test [1] and in test [2] were less than 25 nM and no more than 25 nM, respectively.
Consider `O=C(NO)c1ccc2c(c1)N(Cc1ccc(-c3ncco3)cc1)C(=O)CO2` [Compound I-221, N-hydroxy-4-(4-(oxazol-2-yl)benzyl)-3-oxo-3,4-dihydro-2H-benzo[b][1,4]oxazine-6-carboxamide], for which the IC50 in test [1] was less than 25 nM; in test [2], no more than 25 nM.
As to `O=C(NO)c1ccc2c(c1)N(Cc1ccn(-c3ccccc3)n1)C(=O)CO2` [Compound I-222, N-hydroxy-3-oxo-4-((1-phenyl-1H-pyrazol-3-yl)methyl)-3,4-dihydro-2H-benzo[b][1,4]oxazine-6-carboxamide], the IC50 is less than 25 nM in test [1] and no more than 25 nM in test [2].
With `O=C(NO)c1ccc2c(c1)N(Cc1cnn(-c3ccccc3)c1)C(=O)CO2` [Compound I-223, N-hydroxy-3-oxo-4-((1-phenyl-1H-pyrazol-4-yl)methyl)-3,4-dihydro-2H-benzo[b][1,4]oxazine-6-carboxamide], the IC50 is less than 25 nM in test [1] and no more than 25 nM in test [2].
Taken in the same sequence, the figures for `O=C(NO)c1ccc2c(c1)N(Cc1ccc(-n3cccn3)cc1)C(=O)CO2` [Compound I-224, 4-(4-(1H-pyrazol-1-yl)benzyl)-N-hydroxy-3-oxo-3,4-dihydro-2H-benzo[b][1,4]oxazine-6-carboxamide] were less than 25 nM and no more than 25 nM.
Taken in the same sequence, the figures for `COc1ccc(CN2C(=O)COc3ccc(C(=O)NO)cc32)c(Cl)c1` [Compound I-242, 4-(2-chloro-4-methoxybenzyl)-N-hydroxy-3-oxo-3,4-dihydro-2H-benzo[b][1,4]oxazine-6-carboxamide] were less than 25 nM and no more than 25 nM.
On the same counts, the results for `COc1ccc(CN2C(=O)COc3ccc(C(=O)NO)cc32)cc1Cl` [Compound I-243, 4-(3-chloro-4-methoxybenzyl)-N-hydroxy-3-oxo-3,4-dihydro-2H-benzo[b][1,4]oxazine-6-carboxamide] are less than 25 nM and no more than 25 nM.
For `COc1ccc(CN2C(=O)COc3ccc(C(=O)NO)cc32)cc1C` [Compound I-244, N-hydroxy-4-(4-methoxy-3-methylbenzyl)-3-oxo-3,4-dihydro-2H-benzo[b][1,4]oxazine-6-carboxamide], the results for the IC50 in test [1] and in test [2] were less than 25 nM and 25 to 100 nM, respectively.
For `COc1ccc(CN2C(=O)COc3ccc(C(=O)NO)cc32)cc1F` [Compound I-245, 4-(3-fluoro-4-methoxybenzyl)-N-hydroxy-3-oxo-3,4-dihydro-2H-benzo[b][1,4]oxazine-6-carboxamide], the IC50 in test [1] was less than 25 nM; in test [2], no more than 25 nM.
Turning to `COc1ccc(CN2C(=O)COc3ccc(C(=O)NO)cc32)cc1C(F)(F)F` [Compound I-246, N-hydroxy-4-(4-methoxy-3-(trifluoromethyl)benzyl)-3-oxo-3,4-dihydro-2H-benzo[b][1,4]oxazine-6-carboxamide], the IC50 in test [1] is less than 25 nM; in test [2] it was no more than 25 nM.
On the same counts, the results for `COc1ccc(CN2C(=O)COc3ccc(C(=O)NO)cc32)c(F)c1F` [Compound I-247, 4-(2,3-difluoro-4-methoxybenzyl)-N-hydroxy-3-oxo-3,4-dihydro-2H-benzo[b][1,4]oxazine-6-carboxamide] are less than 25 nM and no more than 25 nM.
With `COc1cc(F)c(CN2C(=O)COc3ccc(C(=O)NO)cc32)c(F)c1` [Compound I-248, 4-(2,6-difluoro-4-methoxybenzyl)-N-hydroxy-3-oxo-3,4-dihydro-2H-benzo[b][1,4]oxazine-6-carboxamide], the IC50 in test [1] is less than 25 nM; in test [2], no more than 25 nM.

For the origin of these results see patent publication US10370343B2, “[6,6] Fused bicyclic HDAC8 inhibitors” (FORMA Therapeutics, Inc., priority 2015, dated 2019).
